# Measured values: patent US20030059451A1, “Use of orally administered dehydroepiandrosterone, precursors and derivatives thereof in order to improve the papery aspect of the skin” (priority 2000, published 2003)
# How the values were obtained:
# Assay type in all cases: in vivo, healthy volunteers (men and women)
# [1] = test system: healthy volunteers, of both sexes, 60 to 80 years old; test: Clinical evaluation of the weathered (papyrus-like) appearance of the skin, randomized double-blind study versus placebo; conditions: 12 months; for variation in the weathered (papyrus-like) appearance relative to T0 (clinical score 0 to 9): back of a hand, 50 mg/day orally, FIG. 1
# Description: (§1) The evaluation was carried out using a randomized double-blind clinical study on 70 individuals (35 men and 35 women). The inclusion criteria were as follows: healthy volunteers, of both sexes, free of any severe pathological condition and 60 to 80 years old.
# (§2) The treatment consisted, for 12 months, of a daily dose of 50 mg of DHEA, taken in the morning, in the form of a breakable tablet, for half the individuals, or as a placebo for the other half of the individuals.
# The weathered (papyrus-like) appearance is evaluated clinically, blind, on the back of a hand at the start of treatment (T0) and at the end of treatment (T12), by the same clinician.
# The weathered (papyrus-like) appearance is represented by a clinical score ranging from 0 (weathered appearance absent or only very slightly noticeable) to 9 (very marked weathered appearance).
# (§3) The statistical analysis is performed using the Wilcoxon test.
# [2] = test system: healthy volunteers, of both sexes, 60 to 80 years old; test: Clinical evaluation of the slackening of the skin, randomized double-blind study versus placebo; conditions: for Slackening of the skin of the forearm (clinical score 0 to 9): ventral side of the forearm
# Description: as §1, §2
# The slackening of the skin is evaluated clinically, blind, on the ventral side of the forearm and on the skin of the face at the start of treatment (T0) and at the end of treatment (T12), by the same clinician. The slackening of the skin is represented by a clinical score ranging from 0 (slight or hardly noticeable slackening) to 9 (very marked slackening). The statistical analysis is performed using the Wilcoxon test.
# [3] = test system: healthy volunteers, of both sexes, 60 to 80 years old; test: Elasticity of the skin measured with the Derma Torque Meter, randomized double-blind study versus placebo; conditions: for Elasticity of the skin of the forearm (ratio of extensibility to recovery): ventral side of the forearm
# Description: as §1, §2
# The elasticity of the skin was evaluated with the Derma Torque Meter® (DTM® Dia-Stron Limited, Andover, Hampshire, United Kingdom). The biomechanical properties (elasticity) of the skin of the ventral side of the forearm is measured. The DTM® makes it possible to study the response of the skin to a deformation applied in the direction parallel to its surface. The rotation of a disk stuck to the skin is measured and the elasticity of the skin is thus evaluated, which is one of the best markers of aging (Escoffier C. et al. (1989), J. Invest. Dermatol., 93, 353-357).
# The elasticity is expressed as the ratio of extensibility to recovery.
# as §3
# [4] = after treatment with DHEA administered orally, 50 mg/day, 12 months
compound,measurement,setting,value
"C[C@]12CC[C@H](O)CC1=CC[C@@H]1[C@@H]2CC[C@]2(C)C(=O)CC[C@@H]12 [DHEA, dehydroepiandrosterone]",variation in the weathered (papyrus-like) appearance relative to T0 (clinical score 0 to 9),[1]; group of men,avoid this degradation
same,variation in the weathered (papyrus-like) appearance relative to T0 (clinical score 0 to 9),"[1]; group of women, significant relative to placebo (p=0.005)",decrease in the mean scores
same,effect on the weathered (papyrus-like) appearance of the skin,"[1]; overall conclusion, after oral administration, 50 mg/day",improves the weathered (papyrus-like) appearance of the skin
same,Slackening of the skin of the face (clinical score 0 to 9),[2]; T0 (start of treatment),6.69
same,Slackening of the skin of the forearm (clinical score 0 to 9),[2]; T0 (start of treatment),5.44
same,Slackening of the skin of the face (clinical score 0 to 9),"[2]; T12 (end of treatment), 50 mg/day orally, 12 months, Wilcoxon P = 0.5",6.81
same,Slackening of the skin of the forearm (clinical score 0 to 9),"[2]; T12 (end of treatment), 50 mg/day orally, 12 months, Wilcoxon P = 0.15",7.19
same,variation in the slackening of the skin after treatment,[2]; [4],do not significantly vary
same,Elasticity of the skin of the forearm (ratio of extensibility to recovery),[3]; T0 (start of treatment),0.36
same,Elasticity of the skin of the forearm (ratio of extensibility to recovery),"[3]; T12 (end of treatment), 50 mg/day orally, 12 months, Wilcoxon P = 0.55",0.31
same,variation in the elasticity of the skin after treatment,[3]; [4],do not significantly vary
